Like-named read-outs stand apart in the source and are kept apart here. Marks after values point to notes of the source that are not given here.
Conditions: in vivo; for OSI-420 AUC0–24 / OSI-420 Cmax / OSI-420 Tmax, median (range) / OSI-420 Tmax: human
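Also: pharmacokinetic parameters derived by non-compartmental analysis.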

OSI-420 AUC0–24 (150 mg): 2.56 (0.599–10.5) ^a μg h ml^−1 | OSI-420 Cmax (150 mg): 0.165 (0.0452–0.568) μg ml^−1 | OSI-420 Tmax, median (range) (150 mg): 4.0 (1.05–23.9) h | OSI-420 AUC0–24 (200 mg): 4.55 (0.996–19.2) μg h ml^−1 | OSI-420 Cmax (200 mg): 0.278 (0.0617–0.864) μg ml^−1 | OSI-420 Tmax, median (range) (200 mg): 2.0 (1.00–24.0) h | OSI-420 AUC0–24 (225 mg): 4.10 (1.57–19.7) μg h ml^−1 | OSI-420 Cmax (225 mg): 0.260 (0.116–0.908) μg ml^−1 | OSI-420 Tmax, median (range) (225 mg): 2.0 (0.930–8.00) h | OSI-420 AUC0–24 (250 mg): 3.32 (1.52–16.4) μg h ml^−1 | OSI-420 Cmax (250 mg): 0.219 (0.119–0.760) μg ml^−1 | OSI-420 Tmax, median (range) (250 mg): 4.0 (1.00–8.00) h | OSI-420 AUC0–24 (275 mg): 3.62 (1.51–15.7) μg h ml^−1 | OSI-420 Cmax (275 mg): 0.223 (0.107–0.929) μg ml^−1 | OSI-420 Tmax, median (range) (275 mg): 2.0 (1.00–8.02) h | OSI-420 AUC0–24 (300 mg): 4.23 (1.38–6.32) μg h ml^−1 | OSI-420 Cmax (300 mg): 0.273 (0.133–0.346) μg ml^−1 | OSI-420 Tmax, median (range) (300 mg): 2.0 (1.00–2.03) h | OSI-420 AUC0–24 (325 mg): 4.18 (2.26, 6.09) μg h ml^−1 | OSI-420 Cmax (325 mg): 0.344 (0.222, 0.426) μg ml^−1 | OSI-420 Tmax, median (range) (325 mg): 1.5 (2.00, 1.00) h | OSI-420 AUC0–24 (350 mg): 2.33 (2.94, 1.72) μg h ml^−1 | OSI-420 Cmax (350 mg): 0.169 (0.243, 0.0945) μg ml^−1 | OSI-420 Tmax, median (range) (350 mg): 2.0 (2.00, 2.03) h | OSI-420 AUC0–24 (375 mg): 3.80 µg·h/mL | OSI-420 Cmax (375 mg): 0.253 µg/mL | OSI-420 Tmax (375 mg): 1.0 h | OSI-420 AUC0–24 (400 mg): 6.84 µg·h/mL | OSI-420 Cmax (400 mg): 0.454 µg/mL | OSI-420 Tmax (400 mg): 2.0 h | OSI-420 AUC0–24 (425 mg): 5.02 µg·h/mL | OSI-420 Cmax (425 mg): 0.293 µg/mL | OSI-420 Tmax (425 mg): 2.0 h | OSI-420 AUC0–24 (450 mg): 8.78 µg·h/mL | OSI-420 Cmax (450 mg): 0.489 µg/mL | OSI-420 Tmax (450 mg): 4.0 h | Interpatient and intrapatient variability of PK: High
SMILES: C#Cc1cccc(Nc2ncnc3cc(OCCOC)c(OCCO)cc23)c1 [OSI-420]
